From patent publication US7446117B2, “Cox-2 inhibiting pyridine derivatives” (Glaxo Group Limited, priority 2002, dated 2008)

Target: T1, microsomal h-COX2 (Homo sapiens, UniProt P35354)
T1 construct: made in house; host or cells: baculovirus infected SF9 cells (microsomal preparation)
T1 sequence (P35354 18-604): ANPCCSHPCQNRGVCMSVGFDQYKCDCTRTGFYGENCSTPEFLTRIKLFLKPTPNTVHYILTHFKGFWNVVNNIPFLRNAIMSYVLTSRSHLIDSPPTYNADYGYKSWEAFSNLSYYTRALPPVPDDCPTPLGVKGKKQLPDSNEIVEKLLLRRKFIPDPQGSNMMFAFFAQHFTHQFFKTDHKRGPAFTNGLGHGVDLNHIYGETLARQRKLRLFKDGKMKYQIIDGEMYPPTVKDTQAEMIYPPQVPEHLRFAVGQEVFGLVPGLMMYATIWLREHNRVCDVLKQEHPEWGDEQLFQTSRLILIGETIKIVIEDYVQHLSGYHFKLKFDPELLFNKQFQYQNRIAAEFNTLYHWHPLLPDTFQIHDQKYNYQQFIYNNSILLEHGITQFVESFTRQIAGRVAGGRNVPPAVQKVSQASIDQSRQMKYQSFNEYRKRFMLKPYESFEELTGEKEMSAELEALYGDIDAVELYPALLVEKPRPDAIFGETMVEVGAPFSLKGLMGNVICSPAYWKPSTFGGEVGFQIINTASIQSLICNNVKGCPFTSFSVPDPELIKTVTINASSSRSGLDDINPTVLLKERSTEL
Assay: Microsomal assay: inhibitory activity against microsomal h-COX2
Type: biochemical
Settings: microsomal preparation from baculovirus infected SF9 cells; 1 hour incubation with compound; 0.1 μM arachidonic acid, 10 minutes; PGE2 by EIA; read-out: IC50 values for inhibition of COX-2
Procedure: Biological Data Microsomal Assay
Inhibitory activity against microsomal h-COX2 was assessed against a microsomal preparation from baculovirus infected SF9 cells. An aliquot of microsomal preparation was thawed slowly on ice and a 1/40,000 dilution prepared from it into the assay buffer (sterile water, degassed with argon containing 100 mM HEPES (pH 7.4), 10 mM EDTA (pH7.4), 1 mM phenol, 1 mM reduced glutathione, 20 mg/ml gelatin and 0.001 mM Hematin). Once diluted the enzyme solution was then sonicated for 5 seconds (Branson sonicator, setting 4, 1 cm tip) to ensure a homogeneous suspension. 155 μl enzyme solution was then added to each well of a 96-well microtitre plate containing either 5 μl test compound (40× required test concentration) or 5 μl DMSO for controls. Plates were then mixed and incubated at room temperature for 1 hour. Following the incubation period, 40 μl of 0.5 μM arachidonic acid was added to each well to give a final concentration of 0.1 μM. Plates were then mixed and incubated for exactly 10 minutes (room temperature) prior to addition of 25 μl 1M HCl (hydrochloric acid) to each well to stop the reaction. 25 μl of 1M NaOH (sodium hydroxide) was then added to each well to neutralise the solution prior to determination of PGE2 levels by enzyme immunoassay (EIA).

SMILES | IC50
CCc1cc(NCc2ncc[nH]2)nc(-c2ccc(S(C)(=O)=O)cc2)c1 [Example 84] | ≤ 500 nM
Cc1cc(NC2CCCCC2)nc(-c2ccc(S(C)(=O)=O)cc2)c1 [Example 17] | ≤ 500 nM
Cc1cc(OCc2ccccc2)nc(-c2ccc(S(C)(=O)=O)cc2)c1 [Example 2, 2-Benzyloxy-4-methyl-6-[4-(methylsulfonyl)phenyl]pyridine] | ≤ 500 nM
CC(C)(C)c1cc(NCc2ccccc2)nc(-c2ccc(S(C)(=O)=O)cc2)c1 [Example 151] | ≤ 500 nM
CS(=O)(=O)c1ccc(-c2cc(C(F)(F)F)cc(OCc3ccncc3Br)n2)cc1 [Example 201] | ≤ 500 nM
Cc1cc(N[C@@H](C)c2ccccc2)nc(-c2ccc(S(C)(=O)=O)cc2)c1 [Example 94] | ≤ 500 nM
Cc1cc(OCc2ccc(C)nc2)nc(-c2ccc(S(C)(=O)=O)cc2)c1 [Example 158] | ≤ 500 nM
CCc1cc(Nc2ccc(F)cc2)nc(-c2ccc(S(C)(=O)=O)cc2)c1 [Example 105] | ≤ 500 nM
Cc1cc(NCc2c[nH]nc2C)nc(-c2ccc(S(C)(=O)=O)cc2)c1 [Example 81] | ≤ 500 nM
CCc1cc(OCc2ccccc2)nc(-c2ccc(S(C)(=O)=O)cc2)c1 [Example 96] | ≤ 500 nM
CCc1cc(-c2ccc(S(C)(=O)=O)cc2)nc(NCc2ccccn2)c1C#N [Example 222, 4-Ethyl-6-[4-(methylsulfonyl)phenyl]-2-[(2-pyridinylmethyl)amino]-3-pyridinecarbonitrile] | ≤ 500 nM
CCN(Cc1ccccc1)c1cc(C(F)(F)F)cc(-c2ccc(S(C)(=O)=O)cc2)n1 [Example 193] | ≤ 500 nM
C[C@@H](Nc1cc(C(F)(F)F)cc(-c2ccc(S(C)(=O)=O)cc2)n1)c1ccccc1 [Example 53] | ≤ 500 nM
Cn1ncnc1CNc1cc(C(F)(F)F)cc(-c2ccc(S(C)(=O)=O)cc2)n1 [Example 173] | ≤ 500 nM
Cc1cc(NCc2cc(F)cc(F)c2)nc(-c2ccc(S(C)(=O)=O)cc2)c1 [Example 14] | ≤ 500 nM
Cc1cc(NCc2ccc(C)nc2)nc(-c2ccc(S(C)(=O)=O)cc2)c1 [Example 98] | ≤ 500 nM
CCc1cc(NCc2cnn(C)c2C)nc(-c2ccc(S(C)(=O)=O)cc2)c1 [Example 139] | ≤ 500 nM
CCn1ncnc1CNc1cc(C(F)(F)F)cc(-c2ccc(S(C)(=O)=O)cc2)n1 [Example 235] | ≤ 500 nM
CCc1cc(OCc2cccnc2C)nc(-c2ccc(S(C)(=O)=O)cc2)c1 [Example 133] | ≤ 500 nM
Cc1nc(CNc2cc(C(F)(F)F)cc(-c3ccc(S(C)(=O)=O)cc3)n2)no1 [Example 214] | ≤ 500 nM
Cc1cc(NCc2ncnn2C)nc(-c2ccc(S(C)(=O)=O)cc2)c1 [Example 87] | ≤ 500 nM
CS(=O)(=O)c1ccc(-c2cc(C(F)(F)F)cc(NCc3ccccn3)n2)cc1 [Example 208] | ≤ 500 nM

SMILES | IC50
Cc1cc(-c2ccc(S(C)(=O)=O)cc2)nc(N(C)Cc2nccn2C)c1C#N [Example 205] | ≤ 500 nM
Cc1cc(-c2ccc(S(C)(=O)=O)cc2)nc(N(C)Cc2ccccc2)c1 [Example 3, N-Benzyl-N-methyl-4-methyl-6-[4-(methylsulfonyl)phenyl]pyridine-2-amine] | ≤ 500 nM
Cc1cc(NCC(C)C)nc(-c2ccc(S(C)(=O)=O)cc2)c1 [Example 31] | ≤ 500 nM
CCc1cc(-c2ccc(S(C)(=O)=O)cc2)nc(OCc2ccccn2)c1Cl [Example 220] | ≤ 500 nM
CCc1cc(NCc2cnn(CF)c2)nc(-c2ccc(S(C)(=O)=O)cc2)c1 [Example 144] | ≤ 500 nM
CCc1cc(-c2ccc(S(C)(=O)=O)cc2)nc(NCc2ccc(C)cn2)c1C#N [Example 223] | ≤ 500 nM
Cc1cc(-c2ccc(S(C)(=O)=O)cc2)nc(NCc2cnn(C)c2)c1C#N [Example 131] | ≤ 500 nM
Cc1cc(Nc2ccccc2Cl)nc(-c2ccc(S(C)(=O)=O)cc2)c1 [Example 13] | ≤ 500 nM
Cc1cc(-c2ccc(S(C)(=O)=O)cc2)nc(NCc2ccccn2)c1C#N [Example 210] | ≤ 500 nM
CS(=O)(=O)c1ccc(-c2cc(C(F)(F)F)cc(Oc3cncc(Cl)c3)n2)cc1 [Example 190] | ≤ 500 nM
COc1ccc(Nc2cc(C(F)(F)F)cc(-c3ccc(S(C)(=O)=O)cc3)n2)cc1 [Example 16] | ≤ 500 nM
Cc1cc(-c2ccc(S(C)(=O)=O)cc2)nc(N2CCCCC2)c1C [Example 66] | ≤ 500 nM
CS(=O)(=O)c1ccc(-c2cc(CF)cc(NCc3ccccc3)n2)cc1 [Example 104] | ≤ 500 nM
CCc1cc(-c2ccc(S(C)(=O)=O)cc2)nc(N(C)Cc2ccccc2)c1 [Example 45] | ≤ 500 nM
Cn1cc(CNc2cc(C(F)(F)F)cc(-c3ccc(S(C)(=O)=O)cc3)n2)cn1 [Example 171] | ≤ 500 nM
Cc1ccc(Nc2cc(C(F)(F)F)cc(-c3ccc(S(C)(=O)=O)cc3)n2)c(C)n1 [Example 178] | ≤ 500 nM
CCc1cc(-c2ccc(S(C)(=O)=O)cc2)nc(NCc2ccc(C)nc2)c1C#N [Example 224] | ≤ 500 nM
CN(Cc1ccccc1)c1cccc(-c2ccc(S(C)(=O)=O)cc2)n1 [Example 61] | ≤ 500 nM
CCc1cc(-c2ccc(S(C)(=O)=O)cc2)nc(NCC2CCCCC2)c1C#N [Example 231] | ≤ 500 nM
Cc1cc(NCc2ccccc2)nc(-c2ccc(S(C)(=O)=O)cc2)c1 [Example 7] | ≤ 500 nM
Cc1ccccc1CNc1cc(C(F)(F)F)cc(-c2ccc(S(C)(=O)=O)cc2)n1 [Example 49] | ≤ 500 nM

The next lines start with the values.

IC50 | SMILES
≤ 500 nM | CCc1cc(NCc2cnn(C)c2)nc(-c2ccc(S(C)(=O)=O)cc2)c1 [Example 115]
≤ 500 nM | Cc1cc(Nc2ccc(C)nc2)nc(-c2ccc(S(C)(=O)=O)cc2)c1 [Example 56]
≤ 500 nM | CCc1cc(NCc2ccccc2)nc(-c2ccc(S(C)(=O)=O)cc2)c1 [Example 93]
≤ 500 nM | CS(=O)(=O)c1ccc(-c2cc(CF)cc(NC3CCCCC3)n2)cc1 [Example 92]
≤ 500 nM | CCc1cc(NCc2ccc(C)cc2)nc(-c2ccc(S(C)(=O)=O)cc2)c1 [Example 129]
≤ 500 nM | CCc1cc(NC2CCOCC2)nc(-c2ccc(S(C)(=O)=O)cc2)c1 [Example 89, 4-Ethyl-6-[4-(methylsulfonyl)phenyl]-N-(tetrahydro-2H-pyran-4-yl)pyridine-2-amine]
≤ 500 nM | Cc1cc(NCc2cnn(C)c2)nc(-c2ccc(S(C)(=O)=O)cc2)c1 [Example 83, N-[(1-methyl-1H-pyrazol-4-yl)methyl]-4-methyl-6-[4-(methylsulfonyl)phenyl]pyridine-2-amine]
≤ 500 nM | COc1ccc(CNc2cc(C(F)(F)F)cc(-c3ccc(S(C)(=O)=O)cc3)n2)cc1 [Example 55]
≤ 500 nM | C=CCNc1cc(C(F)(F)F)cc(-c2ccc(S(C)(=O)=O)cc2)n1 [Example 12]
≤ 500 nM | CS(=O)(=O)c1ccc(-c2cc(C(F)(F)F)cc(NC3CCC3)n2)cc1 [Example 212]
≤ 500 nM | Cc1ccc(-c2ccc(S(C)(=O)=O)cc2)nc1NCc1ccccc1 [Example 57]
≤ 500 nM | CCc1cc(NCc2ccco2)nc(-c2ccc(S(C)(=O)=O)cc2)c1 [Example 69]
≤ 500 nM | CCc1cc(NCc2[nH]cnc2C)nc(-c2ccc(S(C)(=O)=O)cc2)c1 [Example 109]
≤ 500 nM | CS(=O)(=O)c1ccc(-c2cc(C(F)(F)F)cc(N[C@H]3CC[C@@H](C)CC3)n2)cc1 [Example 206]
≤ 500 nM | Cc1cc(NCc2cc(C)ns2)nc(-c2ccc(S(C)(=O)=O)cc2)c1 [Example 123]
≤ 500 nM | CCc1cc(-c2ccc(S(C)(=O)=O)cc2)nc(NCc2cnn(C)c2)c1C#N [Example 228]
≤ 500 nM | Cc1ncccc1Oc1cc(C(F)(F)F)cc(-c2ccc(S(C)(=O)=O)cc2)n1 [Example 165]
≤ 500 nM | Cc1cccc(CNc2cc(C(F)(F)F)cc(-c3ccc(S(C)(=O)=O)cc3)n2)n1 [Example 180]
≤ 500 nM | CCc1cc(NCc2nccn2CC)nc(-c2ccc(S(C)(=O)=O)cc2)c1 [Example 204]
≤ 500 nM | Cc1cc(-c2ccc(S(C)(=O)=O)cc2)nc(NCc2cnn(C)c2)c1Cl [Example 147]
≤ 500 nM | Cc1cc(-c2ccc(S(C)(=O)=O)cc2)nc(N(C)Cc2ccccc2)c1C [Example 58]
≤ 500 nM | Cc1cc(OCc2cc(C)on2)nc(-c2ccc(S(C)(=O)=O)cc2)c1 [Example 88]
≤ 500 nM | CS(=O)(=O)c1ccc(-c2cc(C(F)(F)F)cc(Nc3ccc(F)cc3)n2)cc1 [Example 169]
